Laboratory results from US6710051B1, “Screening method” (Klaus Trier APS, priority 1997, dated 2004).
Where two headings read alike, the source gives them in different places. Marks after values point to notes of the source that are not given here.

Key:
eye [1] = conditions: animal, abnormal postnatal growth of the eye; cited from earlier work
eye [2] = conditions: test animals exposed to visual deprivation; cited from earlier work
sclera [3] = assay: Content of collagen specific amino acids in rabbit sclera after long term treatment (HPLC); type: in vivo; conditions: dried defatted weight, 10 weeks treatment (Example 4)
sclera [4] = assay: Content of proteoglycanes in rabbit sclera after long term treatment (alcian blue method); type: in vivo; design: Proteoglycanes Decrease compared to the control, anterior sclera / Proteoglycanes Increase compared to the control, anterior sclera / Proteoglycanes Increase compared to the control, posterior sclera / Effect on proteoglycan content of posterior sclera in % compared to control: concentration or dose not given beside the values; conditions: for Effect on proteoglycan content of posterior sclera in % compared to control: rabbit, Examples 2 and 4; for Content of proteoglycanes, anterior sclera / Content of proteoglycanes, posterior sclera: wet weight
Description: (§1) Test animal: Charles River Deutschland Chinchilla Bastard female rabbits.
(§2) Number of animals: 6 test animals and 6 control animals
(§3) Age: approximately 8 weeks at the commencement of the test.
(§4) Weight: 1.4-1.9 kg at the commencement of the test.
Lightness/Darkness cycle: 12/12 hours.
(§5) Cages: The animals live in identical cages made of stainless steel (Scanbur), length 1 m, depth 0.52 m, height 0.5 m.
Food: Stanrab standard diet from Special Diet Services, P.O. Box 705, Witham Essex CM8 3AD, UK (further details, see Table A).
(§6) Amount of food: Increasing from 75 g per day at the commencement of the test up to 130 g after three months.
(§7) Experimental drinking water 1 contained theophyllin in a dose equivalent of 27 mg increasing to 63 mg (added as theophyllin and ethylendiamin in a dose of 33 to 77 mg) daily.
(§8) Experimental drinking water 2 contained fluoxetine (Fontex, Lilly) in a dose equivalent of 2 mg increasing to 5 mg daily.
Experimental diet 2 was added 4.5 g L-cystine per kg Stanrab standard diet equivalent of a daily L-cystine dose of 338 mg increasing to 585 mg per day. With respect to the supplement of L-cystine, the normal intake per day of the standard diet is 218 mg increasing to 377 mg L-cystine.
(§9) Experimental diet 3 was added 7-methylxanthine 500 mg per kg Stanrab standard diet equivalent of a daily 7-methylxanthine dose of […] per day.
(§10) Experimental diet 4 was added theobromine (3,7-dimethylxanthine) 500 mg per kg Stanrab standard diet equivalent of a daily theobromine dose of […] per day.
(§11) Experimental diet 5 was added acetazolamide 500 mg per kg Stanrab standard diet equivalent of a daily acetazolamide dose of […] per day.
Experimental diet 6 was added 4.5 g L-ornithine per kg Stanrab standard diet equivalent of a daily L-ornithine dose of 338 mg increasing to 585 mg per day.
(§12) Collection of sample: Sclera biopsies are taken for analysis for proteoglycane content, distribution between the individual glycosaminoglycanes and the content of collagen specific amino acids. Four tests from each animal: Two samples from the front, 5×10 mm along limbus (without cornea), and two samples from the back, punch 10 mm corresponding to the center of the retina. Furthermore, tests are taken for electron microscopy (EM) from two animals in each group.
Analyses: Samples for proteoglycane analysis are frozen down immediately. The samples are analyzed by Wieslab AB, IDEON, S-223 70 Lund, Sweden, by means of a method which has been described by Björnsson, S., Analytical Biochemistry 210, 282-291 (1993). The method comprises extraction by 20 microliters of 4 M guanidine-HCl, 50 Mm sodium acetate per mg wet weight over night by room temperatures. The extracts are centrifuged in order to remove debris. 20 microliters of supernatant are reduced 1/10 in extraction buffer and 20 microliters of reduced supernatant are mixed with 10 microliters of reagent 1 (see Björnsson, S., Analytical biochemistry 210, 282-291 (1993)) on a shaking table for 15 minutes. 200 microliters of reagent 2 are added and the tests are incubated for 60 minutes in order to precipitate the proteoglycanes. The proteoglycane/alcian blue precipitate is transferred to 96-wells MillBlotD apparatus and washed with 2×200 microliters of 40% DMSO, 0.05 M of MgCl2. The colour intensity of the wells are quantitated by microtech E3 scanner and Scan Analysis software (Biosoft, Cambridge, U.K.). Chrondroitine-6-sulphate (Sigma C4384) is used as the calibrator. All samples are analyzed in duplicate.
The results of longterm treatment with each of the 8 substances specified above are shown in Example 2 (treatment for 12 weeks) and Example 4 (treatment for 10 weeks).

skeletal RyR = biological target: T1, skeletal RyR (Oryctolagus cuniculus, UniProt P11716); conditions: cited from earlier work
T1 construct: Structure-activity Relationship of Xanthines and Skeletal Muscle Ryanodine Receptor/Ca^2+ Release Channel; from tissue; host or cells: Skeletal muscle
T1 sequence (P11716 whole entry): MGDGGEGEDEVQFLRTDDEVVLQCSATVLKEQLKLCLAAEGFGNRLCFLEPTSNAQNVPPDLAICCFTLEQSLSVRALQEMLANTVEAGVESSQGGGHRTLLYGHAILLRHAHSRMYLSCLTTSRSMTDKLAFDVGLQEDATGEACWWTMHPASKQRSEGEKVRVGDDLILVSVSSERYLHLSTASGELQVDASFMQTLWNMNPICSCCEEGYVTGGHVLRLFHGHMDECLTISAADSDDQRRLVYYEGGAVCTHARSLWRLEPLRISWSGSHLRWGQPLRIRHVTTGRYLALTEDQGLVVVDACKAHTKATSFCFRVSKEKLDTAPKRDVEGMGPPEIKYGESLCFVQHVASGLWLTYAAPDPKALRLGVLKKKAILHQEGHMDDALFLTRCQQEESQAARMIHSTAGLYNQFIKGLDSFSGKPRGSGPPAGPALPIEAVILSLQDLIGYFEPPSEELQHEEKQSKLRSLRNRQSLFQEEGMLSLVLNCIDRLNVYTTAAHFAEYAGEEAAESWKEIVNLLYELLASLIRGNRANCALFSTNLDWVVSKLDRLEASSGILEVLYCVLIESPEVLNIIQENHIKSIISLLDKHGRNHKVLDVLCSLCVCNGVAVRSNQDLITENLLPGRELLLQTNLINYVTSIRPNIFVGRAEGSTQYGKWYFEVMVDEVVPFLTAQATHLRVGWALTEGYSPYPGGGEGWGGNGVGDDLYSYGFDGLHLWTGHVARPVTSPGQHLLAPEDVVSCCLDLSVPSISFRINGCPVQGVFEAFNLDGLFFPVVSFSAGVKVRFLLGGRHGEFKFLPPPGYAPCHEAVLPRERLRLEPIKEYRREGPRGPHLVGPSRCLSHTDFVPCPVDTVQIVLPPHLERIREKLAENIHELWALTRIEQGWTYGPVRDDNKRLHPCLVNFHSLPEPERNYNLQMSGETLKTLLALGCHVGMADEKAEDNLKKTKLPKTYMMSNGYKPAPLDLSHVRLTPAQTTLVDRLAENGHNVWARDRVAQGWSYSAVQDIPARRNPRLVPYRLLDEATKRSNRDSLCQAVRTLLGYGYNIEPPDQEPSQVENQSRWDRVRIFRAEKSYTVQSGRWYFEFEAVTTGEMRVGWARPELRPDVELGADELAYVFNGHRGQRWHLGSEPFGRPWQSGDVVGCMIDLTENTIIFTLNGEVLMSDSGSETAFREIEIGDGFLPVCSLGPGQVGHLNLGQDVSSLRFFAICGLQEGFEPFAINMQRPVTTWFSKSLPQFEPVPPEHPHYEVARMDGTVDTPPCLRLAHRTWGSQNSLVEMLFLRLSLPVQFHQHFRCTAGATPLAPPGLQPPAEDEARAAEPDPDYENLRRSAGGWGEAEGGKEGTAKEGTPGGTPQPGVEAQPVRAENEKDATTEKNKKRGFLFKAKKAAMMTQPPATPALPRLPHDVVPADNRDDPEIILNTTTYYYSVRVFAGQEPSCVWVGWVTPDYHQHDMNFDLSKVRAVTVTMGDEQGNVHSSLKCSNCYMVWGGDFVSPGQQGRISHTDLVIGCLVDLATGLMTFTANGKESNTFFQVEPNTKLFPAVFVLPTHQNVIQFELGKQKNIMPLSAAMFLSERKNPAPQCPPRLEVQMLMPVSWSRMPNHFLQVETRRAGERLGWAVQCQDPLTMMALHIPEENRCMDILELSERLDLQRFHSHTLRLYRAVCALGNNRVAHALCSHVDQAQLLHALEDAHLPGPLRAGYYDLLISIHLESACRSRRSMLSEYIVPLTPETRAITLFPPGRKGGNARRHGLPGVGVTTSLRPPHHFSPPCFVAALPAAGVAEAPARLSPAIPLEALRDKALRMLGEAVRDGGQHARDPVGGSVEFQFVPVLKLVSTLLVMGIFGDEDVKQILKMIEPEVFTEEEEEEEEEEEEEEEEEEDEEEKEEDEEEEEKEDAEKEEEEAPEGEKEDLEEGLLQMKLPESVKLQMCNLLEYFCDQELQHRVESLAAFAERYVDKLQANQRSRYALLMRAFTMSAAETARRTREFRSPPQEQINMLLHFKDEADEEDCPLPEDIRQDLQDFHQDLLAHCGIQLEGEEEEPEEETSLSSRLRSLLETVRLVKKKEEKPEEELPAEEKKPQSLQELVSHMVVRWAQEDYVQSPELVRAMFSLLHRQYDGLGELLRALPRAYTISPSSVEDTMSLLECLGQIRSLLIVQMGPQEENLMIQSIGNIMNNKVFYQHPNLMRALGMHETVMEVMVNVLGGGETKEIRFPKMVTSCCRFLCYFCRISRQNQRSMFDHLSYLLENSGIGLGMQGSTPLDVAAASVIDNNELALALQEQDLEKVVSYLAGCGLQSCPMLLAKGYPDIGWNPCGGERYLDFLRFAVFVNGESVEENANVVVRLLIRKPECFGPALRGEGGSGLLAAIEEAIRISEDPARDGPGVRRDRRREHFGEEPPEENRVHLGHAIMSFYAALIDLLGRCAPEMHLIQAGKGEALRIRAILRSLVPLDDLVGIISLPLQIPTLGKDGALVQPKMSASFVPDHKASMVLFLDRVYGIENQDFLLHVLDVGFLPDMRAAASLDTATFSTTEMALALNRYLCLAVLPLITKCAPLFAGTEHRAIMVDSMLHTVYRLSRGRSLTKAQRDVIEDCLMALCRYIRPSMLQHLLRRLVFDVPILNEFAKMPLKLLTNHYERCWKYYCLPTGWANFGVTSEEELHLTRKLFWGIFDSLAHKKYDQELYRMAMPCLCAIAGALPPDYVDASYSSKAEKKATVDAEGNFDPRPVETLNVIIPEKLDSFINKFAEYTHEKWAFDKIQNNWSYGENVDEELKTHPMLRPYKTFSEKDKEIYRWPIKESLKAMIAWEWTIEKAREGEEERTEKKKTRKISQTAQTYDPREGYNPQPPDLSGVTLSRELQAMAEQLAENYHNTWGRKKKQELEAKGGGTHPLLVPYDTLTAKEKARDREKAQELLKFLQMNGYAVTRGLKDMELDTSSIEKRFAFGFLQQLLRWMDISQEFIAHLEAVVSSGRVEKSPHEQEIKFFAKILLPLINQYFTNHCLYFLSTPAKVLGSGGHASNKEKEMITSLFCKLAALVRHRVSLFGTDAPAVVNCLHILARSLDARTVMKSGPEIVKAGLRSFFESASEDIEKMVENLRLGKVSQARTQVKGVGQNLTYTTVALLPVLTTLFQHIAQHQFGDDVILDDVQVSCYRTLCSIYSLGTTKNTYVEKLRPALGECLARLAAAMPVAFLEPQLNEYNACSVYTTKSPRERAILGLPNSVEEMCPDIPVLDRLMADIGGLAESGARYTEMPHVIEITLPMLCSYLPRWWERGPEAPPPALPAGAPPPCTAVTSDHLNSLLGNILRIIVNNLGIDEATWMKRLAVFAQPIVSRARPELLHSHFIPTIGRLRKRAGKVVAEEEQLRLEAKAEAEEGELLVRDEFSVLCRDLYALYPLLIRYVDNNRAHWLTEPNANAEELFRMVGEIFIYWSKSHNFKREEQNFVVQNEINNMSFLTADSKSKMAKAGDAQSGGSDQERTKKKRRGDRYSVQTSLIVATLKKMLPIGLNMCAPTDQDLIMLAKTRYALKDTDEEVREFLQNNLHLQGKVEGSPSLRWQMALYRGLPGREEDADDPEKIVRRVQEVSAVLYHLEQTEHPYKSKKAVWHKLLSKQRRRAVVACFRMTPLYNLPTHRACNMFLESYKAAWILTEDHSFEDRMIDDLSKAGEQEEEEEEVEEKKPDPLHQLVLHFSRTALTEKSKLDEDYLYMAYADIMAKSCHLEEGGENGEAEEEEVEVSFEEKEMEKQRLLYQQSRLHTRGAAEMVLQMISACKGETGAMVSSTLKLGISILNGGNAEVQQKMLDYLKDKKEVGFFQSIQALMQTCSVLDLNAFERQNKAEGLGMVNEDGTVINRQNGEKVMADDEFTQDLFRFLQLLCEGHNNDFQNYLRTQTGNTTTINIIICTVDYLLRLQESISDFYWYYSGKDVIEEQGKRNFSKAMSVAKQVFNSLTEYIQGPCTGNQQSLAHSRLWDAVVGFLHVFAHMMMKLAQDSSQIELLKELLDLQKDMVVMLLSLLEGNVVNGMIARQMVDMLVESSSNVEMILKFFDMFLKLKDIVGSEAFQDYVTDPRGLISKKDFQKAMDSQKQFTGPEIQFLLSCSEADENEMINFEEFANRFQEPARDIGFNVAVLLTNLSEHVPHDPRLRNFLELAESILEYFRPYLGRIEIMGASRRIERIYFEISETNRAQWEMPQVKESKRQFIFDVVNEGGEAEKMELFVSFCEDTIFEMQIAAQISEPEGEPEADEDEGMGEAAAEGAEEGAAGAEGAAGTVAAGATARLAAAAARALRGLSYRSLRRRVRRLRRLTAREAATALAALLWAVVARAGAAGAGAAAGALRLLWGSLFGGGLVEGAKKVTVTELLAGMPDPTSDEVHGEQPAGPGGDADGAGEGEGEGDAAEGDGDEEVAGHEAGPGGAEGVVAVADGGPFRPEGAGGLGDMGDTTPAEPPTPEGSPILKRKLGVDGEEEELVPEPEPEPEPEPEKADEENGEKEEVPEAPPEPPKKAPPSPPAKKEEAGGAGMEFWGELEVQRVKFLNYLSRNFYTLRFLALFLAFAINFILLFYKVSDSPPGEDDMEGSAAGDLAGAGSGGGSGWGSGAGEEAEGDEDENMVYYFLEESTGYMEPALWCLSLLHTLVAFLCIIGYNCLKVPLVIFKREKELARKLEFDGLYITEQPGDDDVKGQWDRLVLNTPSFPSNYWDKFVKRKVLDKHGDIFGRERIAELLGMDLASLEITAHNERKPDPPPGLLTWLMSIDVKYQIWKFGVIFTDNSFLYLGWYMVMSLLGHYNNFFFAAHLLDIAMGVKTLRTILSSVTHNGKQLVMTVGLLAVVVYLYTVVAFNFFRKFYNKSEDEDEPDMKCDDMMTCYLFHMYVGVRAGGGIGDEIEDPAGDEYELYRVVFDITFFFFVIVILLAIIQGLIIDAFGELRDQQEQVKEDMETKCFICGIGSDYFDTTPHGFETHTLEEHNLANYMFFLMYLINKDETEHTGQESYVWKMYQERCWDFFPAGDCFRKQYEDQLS

sclera [5] = assay: Content of collagen specific amino acids in rabbit sclera after long term treatment (HPLC); type: in vivo; design: Hydroxylysine Decr. compared to the control / Hydroxyproline Inc. compared to the control / Proline Inc. compared to the control: concentration or dose not given beside the values; conditions: for Hydroxylysine content / Hydroxyproline content / Proline content: dried defatted weight
Text: as §1, §2, §3, §4, §5, §6, §7, §8, §9, §10, §11, §12
Samples for analysis for content of collagen specific amino acids are frozen down immediately. The amino acid content is determined by HPLC-chromatography.
The dried tissue with constant weight is minced into very fine particles with a pair of scissors, approximately 20 per piece of tissue. The small flakes from each original piece of tissue ate divided into two equally sized portions, one of which is employed for hydrolysis and the other one is kept for reference. The constant dry weight of each portion is known.
From each resolubilized hydrolysate 3 aliquots of each 8 microliters and 3 aliquots of 40 μl are taken and transferred to separate polypropylene tubes in which 20 microliters of a solution of internal standard substances citrulline and 2 aminobutyric acid were added where the further method takes place.
The taken aliquots from hydrolysate are dried in a vacuum exsiccator at 35° C. over night and subsequently submitted to derivatization with phenylisothiocyanate.
The resulting phenylisothiocarbamates are transferred to the HPLC instrument for separation and quantification. A new set of calibration curves is established, 1 curve for each of the 19 amino acids, prior to the analysis of the samples from one investigation.
The concentration range of standard samples exceed the ranges of amino acid concentrations in the unknowns. Hydroxyproline and proline are quantitated from the 8 microliter aliquots, and hydroxylysine is quantitated from the 40 microliter aliquots.

[6] = humans; cited from earlier work
[7] = rabbits; cited from earlier work
[8] = tested on: retinal pigment epithelium; assay: c-wave at ERG and standing potential of the eye; conditions: in vivo
Text: Registration of c-Wave at ERG in animals (e.g. rabbits) is a well-developed examination technique (Skoog, K. O., Nilsson, S. E. G., Acta Ophthalmol. (Kph), 52: 759-773 (1974), Jarkman, S., Skoog, K. O., Doc. Ophthalmol., 60: 383-392 (1985)). Also intraoccular administration of test substances for test animals is also a well-described-technique (Textorius O., Doc. Ophthalmol., 63:349-358 (1986)). Alternatively, test substances can be administered intravenously (Jarkman, S., Doc. Ophthalmol. 60: 375-382 (1985)).

[9] = posterior sclera, 10 weeks treatment (Example 4)
[10] = anterior sclera, 3 months treatment
[11] = posterior sclera, 3 months treatment

Structure (SMILES): CN1CCN(CC(=O)N2c3ccccc3C(=O)Nc3cccnc32)CC1 [pirenzepine]
- axial longitudinal growth (eye [1]): inhibited

Structure (SMILES): CN1CCc2cccc3c2[C@H]1Cc1ccc(O)c(O)c1-3 [apomorphine]
- development of myopia (eye [2]): inhibits

Structure (SMILES): Cn1cnc2c1c(=O)[nH]c(=O)n2C [Theobromine, 3,7-Dimethylxanthine]
- Hydroxylysine content (sclera [3]; anterior sclera): 49 +/− 6 nanomol/mg tissue
- Hydroxyproline content (sclera [3]; anterior sclera): 751 +/− 53* nanomol/mg tissue
- Proline content (sclera [3]; anterior sclera): 1073 +/− 78* nanomol/mg tissue
- Hydroxylysine content (sclera [3]; posterior sclera): 49 +/− 4* nanomol/mg tissue
- Hydroxyproline content (sclera [3]; posterior sclera): 741 +/− 18* nanomol/mg tissue
- Proline content (sclera [3]; posterior sclera): 1029 +/− 45* nanomol/mg tissue
- Proteoglycanes Decrease, anterior sclera (sclera [4]; 10 weeks treatment (Example 4)): 10%
- Proteoglycanes Decrease, posterior sclera (sclera [4]; 10 weeks treatment (Example 4)): 14%
- content of proteoglycans in posterior sclera (in words) (sclera [4]; Example 4, versus control): decrease
- Effect on proteoglycan content of posterior sclera in % compared to control (sclera [4]): 86%
- Content of proteoglycanes, anterior sclera (sclera [4]; 10 weeks treatment (Example 4)): 2.6 +/− 0.7 μg PG/mg tissue
- Content of proteoglycanes, posterior sclera (sclera [4]; 10 weeks treatment (Example 4)): 2.5 +/− 0.4 μg PG/mg tissue
- Effect on [3H ryanodine binding in % compared to control (skeletal RyR; values of Table 3 without AMP/AMPPCP, caffeine represented by 1,7-dimethylxanthine): 124%
- Bound [3H]ryanodine % of control (skeletal RyR; xanthine […], 1 mmol/l AMPPCP, control (-xanthine) = 100): 160 ± 22 % of control
- Bound [3H]ryanodine pmol/mg protein (skeletal RyR; xanthine […], 1 mmol/l AMPPCP, means±SD of 3-4 experiments): 2.70 ± 0.37 pmol/mg protein
- Bound [3H]ryanodine, % of control, +1 mmol/l AMPPCP (skeletal RyR; xanthine […], +1 mmol/l AMPPCP, control (-xanthine) = 100): 160 ± 22 % of control
- Bound [3H]ryanodine, % of control, +3 mmol/l AMP (skeletal RyR; xanthine […], +3 mmol/l AMP, control (-xanthine) = 100): 136 ± 8 % of control
- content of all collagen specific amino acids, except hydroxylysine in anterior sclera (in words) (sclera [5]; all sclera samples, Example 4, versus control): Significant higher content
- Hydroxylysine Inc. (sclera [5]; [9]): 20%
- Hydroxyproline Inc. (sclera [5]; [9]): 19%
- Proline Inc. (sclera [5]; [9]): 20%

Structure (SMILES): Cn1c(=O)c2c(ncn2C)n(C)c1=O [Caffeine, 1,3,7-Trimethylxanthine]
- half-life period [6]: approximately 5 hours
- Proteoglycanes Increase compared to the control, anterior sclera (sclera [4]; 3 months treatment): 19%
- Proteoglycanes Increase compared to the control, posterior sclera (sclera [4]; 3 months treatment): 19%
- Effect on proteoglycan content of posterior sclera in % compared to control (sclera [4]): 119%
- Content of proteoglycanes, anterior sclera (sclera [4]; 3 months treatment): 3.2 +/− 0.8 μg PG/mg tissue
- Content of proteoglycanes, posterior sclera (sclera [4]; 3 months treatment): 3.2 +/− 0.5 μg PG/mg tissue
- half-life period [7]: approximately 1 hour
- Hydroxyproline Inc. compared to the control (sclera [5]; [10]): 14%
- Proline Inc. compared to the control (sclera [5]; [10]): 12%
- Hydroxylysine content (sclera [5]; [10]): 39 +/− 19 nanomol/mg tissue
- Hydroxyproline content (sclera [5]; [10]): 688 +/− 36* nanomol/mg tissue
- Proline content (sclera [5]; [10]): 993 +/− 18* nanomol/mg tissue
- Hydroxylysine Decr. compared to the control (sclera [5]; [11]): 14%
- Hydroxyproline Inc. compared to the control (sclera [5]; [11]): 22%
- Proline Inc. compared to the control (sclera [5]; [11]): 17%
- Hydroxylysine content (sclera [5]; [11]): 37 +/− 16 nanomol/mg tissue
- Hydroxyproline content (sclera [5]; [11]): 668 +/− 61 nanomol/mg tissue
- Proline content (sclera [5]; [11]): 947 +/− 38 nanomol/mg tissue

Structure (SMILES): Cn1c(=O)c2[nH]cnc2n(C)c1=O [Theophylline, 1,3-Dimethylxanthine]
- content of proteoglycanes in sclera (in words) (sclera [4]; comment to the examples): reduces
- Effect on proteoglycan content of posterior sclera in % compared to control (sclera [4]): 100%
- c-wave at ERG [8]: reduces
- standing potential of the eye [8]: reduces
- content of hydroxylysine (in words) (sclera [5]; comment to the examples): reduces
- content of the collagen specific amino acids hydroxyproline and proline (in words) (sclera [5]; comment to the examples): increase
